Patent US8415342B2, “Besifloxacin ophthalmic composition for the treatment or control of infection” (Bausch & Lomb Incorporated, priority 2008, dated 2013)
In brackets after ≈: the same amount, converted by molar mass. Several values for one entry are separate records, joined by “and”; a condition that tells them apart may be missing. Identical values can stand only once.

Assays:
[1] = test system: S. aureus topoisomerase mutants; test: MIC against defined topoisomerase mutants; type: cell-based; conditions: Staphylococcus aureus
[2] = test system: baseline pathogens of bacterial conjunctivitis patients; test: MIC of baseline clinical trial isolates, Studies 373, 433, 434 (all species); type: cell-based
S. pneumoniae DNA gyrase = S. pneumoniae DNA gyrase (Streptococcus pneumoniae serotype 4, UniProt P0A4L9+P72524); test: Catalytic inhibition of purified DNA gyrase; type: biochemical
Sequence of S. pneumoniae DNA gyrase (P72524 whole entry): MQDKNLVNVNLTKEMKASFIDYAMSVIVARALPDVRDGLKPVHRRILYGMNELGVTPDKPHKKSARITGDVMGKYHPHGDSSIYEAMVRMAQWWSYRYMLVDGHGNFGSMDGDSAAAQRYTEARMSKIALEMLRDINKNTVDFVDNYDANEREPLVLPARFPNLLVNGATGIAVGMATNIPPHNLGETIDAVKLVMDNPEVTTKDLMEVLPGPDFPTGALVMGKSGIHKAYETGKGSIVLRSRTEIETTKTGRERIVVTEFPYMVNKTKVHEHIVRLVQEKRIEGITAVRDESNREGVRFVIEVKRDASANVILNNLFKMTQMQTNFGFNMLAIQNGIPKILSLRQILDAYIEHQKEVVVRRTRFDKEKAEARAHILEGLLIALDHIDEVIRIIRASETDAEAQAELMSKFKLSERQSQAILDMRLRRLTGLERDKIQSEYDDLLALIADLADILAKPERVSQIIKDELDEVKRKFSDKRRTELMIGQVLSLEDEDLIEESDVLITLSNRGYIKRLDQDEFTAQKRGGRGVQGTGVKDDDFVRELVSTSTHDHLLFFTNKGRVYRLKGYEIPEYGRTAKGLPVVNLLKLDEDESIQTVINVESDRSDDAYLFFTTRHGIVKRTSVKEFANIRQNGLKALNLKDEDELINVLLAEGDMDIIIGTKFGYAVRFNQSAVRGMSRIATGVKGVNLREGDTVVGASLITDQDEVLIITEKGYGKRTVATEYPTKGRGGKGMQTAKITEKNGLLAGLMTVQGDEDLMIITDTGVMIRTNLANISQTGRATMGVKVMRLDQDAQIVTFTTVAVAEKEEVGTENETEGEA
Sequence of S. pneumoniae DNA gyrase (P0A4L9 whole entry): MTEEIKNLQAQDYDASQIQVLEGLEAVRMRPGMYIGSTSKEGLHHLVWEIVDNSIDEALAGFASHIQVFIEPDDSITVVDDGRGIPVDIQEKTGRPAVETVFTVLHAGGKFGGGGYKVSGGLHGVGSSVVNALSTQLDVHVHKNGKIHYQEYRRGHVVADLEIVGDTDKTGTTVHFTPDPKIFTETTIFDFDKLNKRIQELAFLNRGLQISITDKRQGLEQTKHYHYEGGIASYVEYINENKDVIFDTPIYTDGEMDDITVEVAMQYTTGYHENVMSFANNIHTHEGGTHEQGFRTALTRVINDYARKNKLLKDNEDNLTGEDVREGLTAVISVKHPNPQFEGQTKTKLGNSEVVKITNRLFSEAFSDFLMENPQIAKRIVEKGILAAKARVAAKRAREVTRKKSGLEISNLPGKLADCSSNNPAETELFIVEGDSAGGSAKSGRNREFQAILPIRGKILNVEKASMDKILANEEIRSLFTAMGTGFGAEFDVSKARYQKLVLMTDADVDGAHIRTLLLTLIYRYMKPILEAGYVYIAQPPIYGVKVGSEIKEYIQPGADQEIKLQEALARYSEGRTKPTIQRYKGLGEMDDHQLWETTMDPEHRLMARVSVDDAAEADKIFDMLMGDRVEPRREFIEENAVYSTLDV

E. coli topoisomerase IV = E. coli topoisomerase IV (Escherichia coli, UniProt P0AFI2+P20083); test: Cleavable complex stimulation (CC25), topoisomerase IV; type: biochemical; conditions: E. coli enzymes; concentration that produces 25% linearization of the DNA
Sequence of E. coli topoisomerase IV (P0AFI2 whole entry): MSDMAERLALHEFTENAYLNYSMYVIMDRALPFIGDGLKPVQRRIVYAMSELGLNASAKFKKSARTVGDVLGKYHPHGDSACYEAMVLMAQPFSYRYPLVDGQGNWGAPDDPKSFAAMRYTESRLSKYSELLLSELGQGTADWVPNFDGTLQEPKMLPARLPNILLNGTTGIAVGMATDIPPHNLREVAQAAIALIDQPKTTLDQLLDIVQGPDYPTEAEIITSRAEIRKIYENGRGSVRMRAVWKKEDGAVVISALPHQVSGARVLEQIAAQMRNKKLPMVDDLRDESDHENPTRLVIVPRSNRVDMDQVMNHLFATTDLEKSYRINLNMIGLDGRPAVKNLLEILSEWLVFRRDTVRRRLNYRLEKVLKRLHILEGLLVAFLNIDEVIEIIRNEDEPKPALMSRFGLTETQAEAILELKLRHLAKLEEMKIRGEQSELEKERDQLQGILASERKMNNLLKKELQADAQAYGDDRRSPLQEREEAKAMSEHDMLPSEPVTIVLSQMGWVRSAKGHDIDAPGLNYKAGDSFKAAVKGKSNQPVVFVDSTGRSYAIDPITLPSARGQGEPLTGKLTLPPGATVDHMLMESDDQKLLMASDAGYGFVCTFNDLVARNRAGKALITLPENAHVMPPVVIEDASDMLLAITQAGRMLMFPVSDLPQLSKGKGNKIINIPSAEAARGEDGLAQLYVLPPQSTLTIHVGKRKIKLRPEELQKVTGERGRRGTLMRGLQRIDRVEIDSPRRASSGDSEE
Sequence of E. coli topoisomerase IV (P20083 whole entry): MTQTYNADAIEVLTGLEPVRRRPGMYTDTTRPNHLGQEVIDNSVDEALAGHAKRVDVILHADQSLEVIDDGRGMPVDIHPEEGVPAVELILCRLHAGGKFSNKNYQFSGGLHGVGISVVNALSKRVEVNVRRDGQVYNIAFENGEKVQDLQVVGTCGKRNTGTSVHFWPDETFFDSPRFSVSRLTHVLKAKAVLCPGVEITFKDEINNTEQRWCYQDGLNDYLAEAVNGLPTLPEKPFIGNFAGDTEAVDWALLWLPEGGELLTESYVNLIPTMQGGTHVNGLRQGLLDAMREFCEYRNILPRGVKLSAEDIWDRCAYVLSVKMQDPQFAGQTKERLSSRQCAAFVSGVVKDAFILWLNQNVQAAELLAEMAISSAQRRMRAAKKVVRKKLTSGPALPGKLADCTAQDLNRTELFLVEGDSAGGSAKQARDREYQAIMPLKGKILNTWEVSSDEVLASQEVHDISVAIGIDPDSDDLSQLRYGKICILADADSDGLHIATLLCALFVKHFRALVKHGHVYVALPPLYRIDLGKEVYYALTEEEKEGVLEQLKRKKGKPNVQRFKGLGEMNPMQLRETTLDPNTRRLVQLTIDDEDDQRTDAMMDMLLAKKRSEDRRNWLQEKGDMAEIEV

S. pneumoniae [3] = test: In vitro multistep selection for besifloxacin-resistant mutants; type: cell-based; conditions: for MIC: Streptococcus pneumoniae
Method: (§1) Furthermore, an experiment was conducted to assess the mechanism of action of besifloxacin in S. pneumoniae, S. aureus, and E. coli via step selections for isolates with decreased susceptibility to besifloxacin, as well as by testing for altered susceptibilities of ciprofloxacin-resistant variants of all three species containing genetically defined mutations in the quinolone resistance determining regions (QRDRs) of structural genes encoding DNA gyrase and topoisomerase IV (Table 2).
(§2) Besifloxacin is a potent antibacterial agent by virtue of its efficient biochemical inhibition of type II bacterial topoisomerases at low micromolar levels. Besifloxacin was associated with a low mutant prevention concentration (MPC), especially in the two Gram-positive pathogens, S. aureus and S. pneumoniae, in which the MPCs were only four times higher than the MICs for those organisms. Correspondingly, very few drug-resistant mutants were obtained in in vitro experiments for those two species (<1 mutant per 10^10 cells).
(§3) As a consequence, strains with high-level resistance would only emerge if both targets were mutated simultaneously, an event that is not very likely in strains that lack predisposing mutations. A dual-targeting mechanism of action for besifloxacin is supported by the following experimental evidence: • In S. aureus and S. pneumoniae, single (1st step) mutants were extremely rare (<1/10^10 cells) and only few or no double (2nd step) mutants were obtained (Table 3). • Single mutations in the gyrA or in the parC gene were obtained in S. aureus as well as in S. pneumoniae. […] By comparison, all single mutations in quinolone-resistant strains of E. coli were mapped to either the gyrA or the gyrB gene consistent with the general finding that quinolones primarily target the DNA gyrase in Gram-negative bacteria. • Biochemical experiments with the purified DNA gyrase and topoisomerase IV enzymes from S. pneumoniae and E. coli were performed.

E. coli = test: as above; type: cell-based; conditions: for MIC: Escherichia coli
Method: as §1, §2, §3

S. aureus = test: as above; type: cell-based; conditions: for MIC: Staphylococcus aureus
Method: as §1, §2, §3

bacterial conjunctivitis = test: Study 434: besifloxacin ophthalmic suspension vs Vigamox, TID 5 days; type: in vivo, human; conditions: for Clinical Resolution (2 indices), No / Clinical Resolution (2 indices), Yes: mITT culture-confirmed as treated; for Microbial Eradication, No / Microbial Eradication, Yes: missing or discontinued imputed as no, as treated
[4] = Predicted PK/PD ratios in tears with simulated TID dosing (Table 10); design: species or system human; conditions: for Cmax/MIC90, Free / AUC24/MIC90, Free: tears, free besifloxacin (40% bound); for AUC24/MIC90, Free: predicted TID
S. pneumoniae [5] = test: MIC of clinical trial isolates, Studies 373, 433, 434; type: cell-based; conditions: Streptococcus pneumoniae, isolates of studies 373, 433, 434; read-out: MIC90
Method: (§4) PFGE testing was performed per standard procedures.
(§5) The antibacterial susceptibility profile of each Visit 1 bacterial isolate was determined for besifloxacin and other antimicrobials.

H. influenzae = test: as above; type: cell-based; conditions: Haemophilus influenzae, isolates of studies 373, 433, 434; read-out: MIC90
Method: as §4, §5

E. coli DNA gyrase [6] = target: T1, E. coli DNA gyrase (Escherichia coli, UniProt P0AES4+P0AES6); test: Cleavable complex stimulation (CC25), DNA gyrase; type: biochemical; conditions: E. coli enzymes; concentration that produces 25% linearization of the DNA
T1 sequence (P0AES4 whole entry, one chain of several): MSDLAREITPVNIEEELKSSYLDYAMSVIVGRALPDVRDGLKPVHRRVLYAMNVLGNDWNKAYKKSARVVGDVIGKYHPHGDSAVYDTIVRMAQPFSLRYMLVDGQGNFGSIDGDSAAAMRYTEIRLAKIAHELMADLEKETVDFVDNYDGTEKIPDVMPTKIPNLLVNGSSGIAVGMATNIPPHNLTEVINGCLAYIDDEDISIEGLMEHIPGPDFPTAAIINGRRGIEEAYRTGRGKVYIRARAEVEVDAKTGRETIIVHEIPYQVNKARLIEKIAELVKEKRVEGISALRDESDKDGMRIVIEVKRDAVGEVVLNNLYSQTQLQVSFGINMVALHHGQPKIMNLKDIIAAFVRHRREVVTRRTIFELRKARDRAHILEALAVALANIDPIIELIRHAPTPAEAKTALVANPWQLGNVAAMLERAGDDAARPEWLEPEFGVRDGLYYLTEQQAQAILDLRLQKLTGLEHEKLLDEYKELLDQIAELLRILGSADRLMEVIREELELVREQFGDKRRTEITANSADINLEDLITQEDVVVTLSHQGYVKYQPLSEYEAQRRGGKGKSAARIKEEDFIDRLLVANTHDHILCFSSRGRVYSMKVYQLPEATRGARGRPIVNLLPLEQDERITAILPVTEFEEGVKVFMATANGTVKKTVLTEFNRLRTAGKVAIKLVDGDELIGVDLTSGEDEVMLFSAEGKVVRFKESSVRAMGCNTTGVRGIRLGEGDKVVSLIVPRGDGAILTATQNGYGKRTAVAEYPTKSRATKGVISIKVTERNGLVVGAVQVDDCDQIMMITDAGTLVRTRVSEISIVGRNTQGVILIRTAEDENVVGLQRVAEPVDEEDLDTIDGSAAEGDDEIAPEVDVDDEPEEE

[7] = test system: S. aureus, S. pneumoniae, and H. influenzae; test: Time-kill studies; type: cell-based; conditions: S. pneumoniae, and H. influenzae (data not shown)
Source text: The success of in vivo antimicrobial action depends to a large extent on the host's defense mechanisms, which ultimately sequester and kill the microorganisms that have been reduced by the bacteriostatic/bactericidal action of the antibacterial agent. Thus, it is also of interest to profile the bactericidal activity of antimicrobial agents. The assessment of in vitro bactericidal activity can be accomplished in multiple ways, for example, the time-kill method or the determination of the minimum bactericidal concentration (MBC). […] Bactericidal agents are characterized by low MBC:MIC ratios.

E. coli DNA gyrase [8] = target: T1, E. coli DNA gyrase; test: Catalytic inhibition of purified DNA gyrase; type: biochemical
[9] = 1324 clinical isolates of all species, Studies 373, 433, 434
[10] = Gram-negative bacteria (438 clinical isolates)
[11] = Gram-positive bacteria (886 clinical isolates)
[12] = 2nd step, NMO = No mutants obtained
[13] = Visit 2 (Day 5 ± 1), primary endpoint
[14] = Staphylococcus aureus (MRSA-CR)
[15] = Staphylococcus aureus (MSSA-CR)
[16] = Staphylococcus aureus (all phenotypes)

## N[C@@H]1CCCCN(c2c(F)cc3c(=O)c(C(=O)O)cn(C4CC4)c3c2Cl)C1 [Besifloxacin, (R)-(+)-(3-amino-2,3,4,5,6,7-hexahydro-1H-azepin-1-yl)-8-chloro-1-cyclopropyl-6-fluoro-1,4,-dihydro-4-oxo-3-quinolinecarboxylic acid]
[1]; S. aureus Wild type
  MIC: 0.03 µg/mL (≈ 0.0762 µM)
[1]; S. aureus parC S80F (or E84K)
  MIC: 0.06 µg/mL (≈ 0.152 µM)
[1]; S. aureus parC S80F + gyrA S84L
  MIC: 0.5 µg/mL
[2]; [9]
  MIC50: 0.06 µg/mL
  MIC90: 0.25 µg/mL
[2]; [10]
  MIC50: 0.03 µg/mL
  MIC90: 0.5 µg/mL
[2]; [11]
  MIC50: 0.06 µg/mL
  MIC90: 0.25 µg/mL
[2]; clinical isolates from Asia
  MIC90: 1 µg/mL
S. pneumoniae DNA gyrase; S. pneumoniae DNA gyrase
  potency relative to ciprofloxacin and moxifloxacin (catalytic inhibition and cleavable complex stimulation): 4- to 16 fold
S. pneumoniae DNA gyrase; S. pneumoniae enzymes
  IC50: 2500 nM and 2540 nM
  difference between inhibitory concentrations for DNA gyrase and topoisomerase IV: 2.5 fold
E. coli topoisomerase IV
  CC25 Topo IV: 1.4 μM and 0.6 μg/mL
S. pneumoniae [3]; 1st step
  MPC (Mutant prevention concentration): 0.5 µg/mL
  MSW (Mutant Selection Window): 0.12 to 0.25 µg/mL
  Mutation rate at 4 × MIC: <7 × 10^−10
  MIC: 0.12 µg/mL (≈ 0.305 µM)
S. pneumoniae [3]; 2nd step
  MPC (Mutant prevention concentration): 2 to 4 µg/mL
  MSW (Mutant Selection Window): 0.5 to 2 µg/mL
  Mutation rate at 4 × MIC: 2.4 × 10^−8
  MIC: 0.5 µg/mL (≈ 1.27 µM)
S. pneumoniae [3]; in vitro
  frequency of drug-resistant (single, 1st step) mutants: < 1 per 10^10 cells
E. coli; 1st step
  MPC (Mutant prevention concentration): 4 µg/mL
  MSW (Mutant Selection Window): 0.12 to 2 µg/mL
  Mutation rate at 4 × MIC: 3.8 × 10^−8
  MIC: 0.12 µg/mL (≈ 0.305 µM)
E. coli; 2nd step
  MPC (Mutant prevention concentration): 16 µg/mL
  MSW (Mutant Selection Window): 2 to 8 µg/mL
  Mutation rate at 4 × MIC: 6 × 10^−9
  MIC: 2 µg/mL (≈ 5.08 µM)
S. aureus; 1st step
  MPC (Mutant prevention concentration): 0.12 µg/mL
  MSW (Mutant Selection Window): 0.03 to 0.06 µg/mL
  Mutation rate at 4 × MIC: 3.3 × 10^−10
  MIC: 0.03 µg/mL (≈ 0.0762 µM)
S. aureus; 2nd step
  MPC (Mutant prevention concentration): 0.25 µg/mL
  MIC: 0.25 µg/mL (≈ 0.635 µM)
S. aureus; [12]
  MSW (Mutant Selection Window): NMO
  Mutation rate at 4 × MIC: NMO
S. aureus; in vitro
  frequency of drug-resistant (single, 1st step) mutants: < 1 per 10^10 cells
Bacterial conjunctivitis; Visit 2 (Day 5 ± 1)
  Clinical Resolution (2 indices), No: 105 (41.7) n (%)
  Microbial Eradication, No: 17 (6.7) n (%)
Bacterial conjunctivitis; [13]
  Clinical Resolution (2 indices), Yes: 147 (58.3) n (%)
  Microbial Eradication, Yes: 235 (93.3) n (%)
Bacterial conjunctivitis; Visit 3 (Day 8 or 9)
  Clinical Resolution (2 indices), No: 39 (15.5) n (%)
  Clinical Resolution (2 indices), Yes: 213 (84.5) n (%)
  Microbial Eradication, No: 32 (12.7) n (%)
  Microbial Eradication, Yes: 220 (87.3) n (%)
[4]
  AUC24/MIC90, Total: 950
[4]; Haemophilus influenzae
  Cmax/MIC90, Free: 6100
  AUC24/MIC90, Free: 38,010
[4]; [14]
  Cmax/MIC90, Free: 92
  AUC24/MIC90, Free: 570
[4]; [15]
  Cmax/MIC90, Free: 183
  AUC24/MIC90, Free: 1140
[4]; [16]
  Cmax/MIC90, Free: 732
  AUC24/MIC90, Free: 4561
[4]; Staphylococcus epidermidis
  Cmax/MIC90, Free: 732
  AUC24/MIC90, Free: 4561
[4]; Streptococcus pneumoniae
  Cmax/MIC90, Free: 2928
  AUC24/MIC90, Free: 18,245
[4]; human
  Cmax/MIC90, Total: 153
S. pneumoniae [5]
  MIC90: 0.125 µg/mL
H. influenzae
  MIC90: 0.06 µg/mL
E. coli DNA gyrase [6]
  CC25 Gyrase: 0.1 μM and 0.04 μg/mL
[7]
  bactericidal activity in time-kill studies: confirmed the bactericidal activity
E. coli DNA gyrase [8]; E. coli enzymes
  IC50: 2300 nM and 2540 nM
  inhibitory concentration for gyrase lower than for topoisomerase IV: 10 fold
E. coli DNA gyrase [8]; purified E. coli DNA gyrase and topoisomerase IV
  catalytic inhibition and cleavable complex stimulation relative to comparators: equivalent to that of the ciprofloxacin and moxifloxacin comparators
